Measurements from US20140080704A1, “SUBSTITUTED VINYL AND ALKINYL CYCLOHEXENOLS AS ACTIVE AGENTS AGAINST ABIOTIC STRESS IN PLANTS” (priority 2011, published 2014).

Tests used:
ZEAMX (Zea mays) = test: Drought stress test on greenhouse crop plants, spray application, efficacy EF (ZEAMX); format: in vivo; conditions: dosage 25 g/ha, 600 l/ha water, mean of three results
Experimental: (§1) Seeds of monocotyledonous and dicotyledonous crop plants were laid out in sandy loam in wood-fiber pots, covered with soil and cultivated in a greenhouse under good growth conditions. The test plants were treated at the early leaf stage (BBCH10-BBCH13). To ensure uniform water supply before commencement of stress, the potted plants were supplied with the maximum amount of water immediately beforehand by dam irrigation and, after application, transferred in plastic inserts in order to prevent subsequent, excessively rapid drying. The inventive compounds, formulated in the form of wettable powders (WP), wettable granules (WG), suspension concentrates (SC) or emulsion concentrates (EC), were sprayed onto the green parts of the plants as an aqueous suspension at an equivalent water application rate of 600 l/ha with addition of 0.2% wetting agent (agrotin). Substance application is followed immediately by stress treatment of the plants (cold or drought stress). For cold stress treatment, the plants were kept under the following controlled conditions: • “day”: 12 hours with illumination at 8° C. • “night”: 12 hours without illumination at 1° C. […] The intensity of damage was first assessed as a percentage (100%=plants have died, 0%=like control plants). […]

BRSNS (Brassica napus) = test: Drought stress test on greenhouse crop plants, spray application, efficacy EF (BRSNS); format: in vivo; conditions: dosage 25 g/ha, 600 l/ha water, mean of three results
Experimental: as §1

SMILES: CC1=CC(=O)C2CC2(C)C1(O)C#CC1=CC(=O)OC1 (centres unmarked) [I.4-54, 4-[(2-hydroxy-1,3-dimethyl-5-oxobicyclo[4.1.0]hept-3-en-2-yl)ethynyl]furan-2(5H)-one]
- EF (ZEAMX): efficacy = percentage reduction in the intensity of damage (ZEAMX (Zea mays)): >5%
- EF (BRSNS): efficacy = percentage reduction in the intensity of damage (BRSNS (Brassica napus)): >5%
